Each structure is given as a SMILES string.

This is an account of results in patent US6026817A, “Method of treating the syndrome of coronary heart disease risk factors in humans” (priority 1998, dated 2000).

For one experiment, the system named is body weight. The conditions noted are these: in vivo; cited from earlier work.
Experiment [1] relates to patients with prolactin-producing tumors of the pituitary gland. The conditions noted are these: cited from earlier work.
In experiment [2] the test system is insulin resistant subject. The experiment in a line: Example I: metyrosine given to an insulin resistant subject, fasting blood values. The experiment is classed as in vivo, human. As to the method: A insulin resistant subject was given 250 mg metyrosine twice daily.
Where [3] appears, read: 8 weeks of 250 mg twice daily vs initial.
[4] abbreviates: initial levels, before treatment.

Regarding `O=C1CC[C@@]2(O)[C@H]3Cc4ccc(O)c5c4[C@@]2(CCN3CC2CC2)[C@H]1O5` [Naltrexone], the “reduction of body weight” value in the experiment with body weight is given as “inconsistent results”.
Turning to `CC(C)C[C@H]1C(=O)N2CCC[C@H]2[C@]2(O)O[C@](NC(=O)[C@@H]3C=C4c5cccc6[nH]c(Br)c(c56)C[C@H]4N(C)C3)(C(C)C)C(=O)N12` [bromocriptine, 2-bromo-α-ergocryptine], in experiment [1], the glucose tolerance entry is reported as “improves glucose tolerance” and the insulin values entry is reported as “decreases insulin values toward normal”.
With `C[C@](N)(Cc1ccc(O)cc1)C(=O)O` [metyrosine, α-methyltyrosine], in experiment [2] (4 weeks after discontinuation), the “Chol. Tot” value is 254 mg/dL, the FFA is recorded as 747 μE/ml, the Glucose turned out to be 122 mg/dL and the HDL was determined as 37 mg/dL. In experiment [2] (4 weeks after discontinuation), this compound yielded an Insulin of 15 μU/ml, an LDL of 189 mg/dL, an LDL/HDL of 5.1 and a TG of 211 mg/dL. The “all values after discontinuation of the treatment regimen” value in experiment [2] (4 weeks following discontinuation) is given as “returned essentially to their pre-study levels”. For the same compound, in experiment [2] (8 weeks of 250 mg twice daily), the “Chol. Tot” value is 209 mg/dL, the Glucose was found to be 110 mg/dL, the HDL came to 27 mg/dL and the Insulin amounted to 13 μU/ml. Further, in experiment [2] (8 weeks of 250 mg twice daily), the LDL was determined as 134 mg/dL, the LDL/HDL is 5.0, the TG is 144 mg/dL and the “free fatty acids (FFA)” value was 575 μE/L. For the same compound, the FFA in experiment [2] (8 weeks of 250 mg twice daily (Table I)) turned out to be 575 μE/ml. Moreover, in experiment [2] (setting [3]), the “decrease of HDL” value was 34%, the “decrease of LDL” value is 24%, the “decrease of fasting blood glucose level (BGL)” value came out at 10% and the “decrease of free fatty acids (FFA)” value is recorded as 23%. For the same compound, in experiment [2] (setting [3]), the decrease of insulin is listed as 32%, the “decrease of total cholesterol (TCH)” value is on record as 30% and the “decrease of triglycerides (TG)” value is given as 31%. Further, in experiment [2] (14 weeks of 250 mg twice daily), the HDL was 39 mg/dL, the LDL is 119 mg/dL, the LDL/HDL was 3.1 and the “total reduction of LDL from the beginning of the study” value is given as 32%. The “free fatty acids (FFA)” value in experiment [2] (initial level) turned out to be 742 μE/L. In experiment [2] (setting [4]), the “Chol. Tot” value was determined as 299 mg/dL, the Glucose was 121 mg/dL, the HDL came to 41 mg/dL and the Insulin came to 19 μU/ml. In experiment [2] (setting [4]), this compound had an LDL of 176 mg/dL, an LDL/HDL of 4.3 and a TG of 208 mg/dL. In experiment [2] (initial levels, before treatment (Table I)), this compound registered an FFA of 742 μE/ml. Moreover, the body weight result in experiment [2] (week 8) is given as “slight decrease”.
